Results taken from US8853418B2, “Cyclopentylpyrazoles as N-type calcium channel blockers” (Janssen Pharmaceutica NV, priority 2012, dated 2014).
Where two headings read alike, the source gives them in different places.

Key:
[1] = target: N-type calcium channel (Homo sapiens, UniProt Q00975); test: Automated Electrophysiology Assay (QPatch-HT whole-cell patch clamp; low- and high-frequency stimulation); format: cell-based
[2] = target: N-type calcium channel (α1B (Cav2.2), β3 and α2δ subunits) (Homo sapiens, UniProt Q00975); test: Functional Assay: Antagonism of N-Type Calcium Channel (FDSS calcium mobilization, KCl depolarization); format: cell-based; settings: for IC50: HEK cell line, 50 mM KCl depolarization, six-point concentration-response, read-out: FDSS IC50
Protocol: A stable cell line (HEK parent) co-expressing the α1B (Cav2.2), β3 and α2δ subunits of the N-type calcium channel subunits was used. These cells were routinely grown as monolayers in low glucose-containing Dulbecco's Modified Eagle Medium supplemented with 10% FBS, 2 mM L-glutamine, 100 I.U./mL penicillin, 100 μg/mL streptomycin, 400 μg/mL G418 and 200 μg/mL Zeocin (split ratio=1:5). Cells were maintained in 5% CO2 at 37° C. Compounds of Formula (I) were prepared as 10 mM stocks in DMSO from neat compound, if available. Otherwise, the 5 or 10 mM DMSO stock solutions provided in-house were used.
Calcium mobilization responses to KCl depolarization were evaluated by measuring the intensity of calcium-mediated fluorescent signal in the presence of BD Calcium Assay Dye (BD Biosciences, Franklin Lakes, N.J., U.S.A.), utilizing a Functional Drug Screening System (FDSS) by Hamamatsu Corporation (Bridgewater, N.J. U.S.A.).
Twenty-four hr prior to assay, cells were seeded in clear-base poly-D-lysine-coated 384-well plates (BD Biosciences) at a density of 5,000 cells per well in culture medium and grown overnight in 5% CO2 at 37° C. On the day of assay, growth media were removed, and cells were loaded with BD calcium assay dye (BD Biosciences) for 35 min at 37° C. under 5% CO2 and then for 25 min at room temp. Utilizing the FDSS, cells were exposed to representative compounds of Formula (I) at varying concentrations, and intracellular calcium was measured for 5 min prior to the addition of 50 mM KCl for an additional 3 min of measurement.
Calculations and Formulas
IC50 values for representative compounds of Formula (I) were determined from six-point concentration-response experiments and represent the concentration of said compound required to inhibit 50% of the maximal response. Maximal fluorescence intensity (FI) achieved upon addition of 50 mM KCl was exported from the FDSS software and further analyzed using GraphPad Prism 3.02 (Graph Pad Software Inc., San Diego, Calif., U.S.A.). Data were normalized to the maximum average counts from quadruplicate wells for each condition in the presence of 50 mM KCl and to the minimum average counts in the presence of buffer. Theoretical curves were generated using nonlinear regression curve-fitting analysis of either sigmoidal concentration-response or sigmoidal concentration-response (variable slope), and the IC50 values with the best-fit curve determined by GraphPad Prism were reported.

[3] = high-frequency stimulation (15th pulse), read-out: QPatch at High Frequency % Inhibition
[4] = low frequency, read-out: QPatch at Low Frequency % Inhibition

N-type calcium channel (α1B (Cav2.2), β3 and α2δ subunits), sequence (Q00975 whole entry): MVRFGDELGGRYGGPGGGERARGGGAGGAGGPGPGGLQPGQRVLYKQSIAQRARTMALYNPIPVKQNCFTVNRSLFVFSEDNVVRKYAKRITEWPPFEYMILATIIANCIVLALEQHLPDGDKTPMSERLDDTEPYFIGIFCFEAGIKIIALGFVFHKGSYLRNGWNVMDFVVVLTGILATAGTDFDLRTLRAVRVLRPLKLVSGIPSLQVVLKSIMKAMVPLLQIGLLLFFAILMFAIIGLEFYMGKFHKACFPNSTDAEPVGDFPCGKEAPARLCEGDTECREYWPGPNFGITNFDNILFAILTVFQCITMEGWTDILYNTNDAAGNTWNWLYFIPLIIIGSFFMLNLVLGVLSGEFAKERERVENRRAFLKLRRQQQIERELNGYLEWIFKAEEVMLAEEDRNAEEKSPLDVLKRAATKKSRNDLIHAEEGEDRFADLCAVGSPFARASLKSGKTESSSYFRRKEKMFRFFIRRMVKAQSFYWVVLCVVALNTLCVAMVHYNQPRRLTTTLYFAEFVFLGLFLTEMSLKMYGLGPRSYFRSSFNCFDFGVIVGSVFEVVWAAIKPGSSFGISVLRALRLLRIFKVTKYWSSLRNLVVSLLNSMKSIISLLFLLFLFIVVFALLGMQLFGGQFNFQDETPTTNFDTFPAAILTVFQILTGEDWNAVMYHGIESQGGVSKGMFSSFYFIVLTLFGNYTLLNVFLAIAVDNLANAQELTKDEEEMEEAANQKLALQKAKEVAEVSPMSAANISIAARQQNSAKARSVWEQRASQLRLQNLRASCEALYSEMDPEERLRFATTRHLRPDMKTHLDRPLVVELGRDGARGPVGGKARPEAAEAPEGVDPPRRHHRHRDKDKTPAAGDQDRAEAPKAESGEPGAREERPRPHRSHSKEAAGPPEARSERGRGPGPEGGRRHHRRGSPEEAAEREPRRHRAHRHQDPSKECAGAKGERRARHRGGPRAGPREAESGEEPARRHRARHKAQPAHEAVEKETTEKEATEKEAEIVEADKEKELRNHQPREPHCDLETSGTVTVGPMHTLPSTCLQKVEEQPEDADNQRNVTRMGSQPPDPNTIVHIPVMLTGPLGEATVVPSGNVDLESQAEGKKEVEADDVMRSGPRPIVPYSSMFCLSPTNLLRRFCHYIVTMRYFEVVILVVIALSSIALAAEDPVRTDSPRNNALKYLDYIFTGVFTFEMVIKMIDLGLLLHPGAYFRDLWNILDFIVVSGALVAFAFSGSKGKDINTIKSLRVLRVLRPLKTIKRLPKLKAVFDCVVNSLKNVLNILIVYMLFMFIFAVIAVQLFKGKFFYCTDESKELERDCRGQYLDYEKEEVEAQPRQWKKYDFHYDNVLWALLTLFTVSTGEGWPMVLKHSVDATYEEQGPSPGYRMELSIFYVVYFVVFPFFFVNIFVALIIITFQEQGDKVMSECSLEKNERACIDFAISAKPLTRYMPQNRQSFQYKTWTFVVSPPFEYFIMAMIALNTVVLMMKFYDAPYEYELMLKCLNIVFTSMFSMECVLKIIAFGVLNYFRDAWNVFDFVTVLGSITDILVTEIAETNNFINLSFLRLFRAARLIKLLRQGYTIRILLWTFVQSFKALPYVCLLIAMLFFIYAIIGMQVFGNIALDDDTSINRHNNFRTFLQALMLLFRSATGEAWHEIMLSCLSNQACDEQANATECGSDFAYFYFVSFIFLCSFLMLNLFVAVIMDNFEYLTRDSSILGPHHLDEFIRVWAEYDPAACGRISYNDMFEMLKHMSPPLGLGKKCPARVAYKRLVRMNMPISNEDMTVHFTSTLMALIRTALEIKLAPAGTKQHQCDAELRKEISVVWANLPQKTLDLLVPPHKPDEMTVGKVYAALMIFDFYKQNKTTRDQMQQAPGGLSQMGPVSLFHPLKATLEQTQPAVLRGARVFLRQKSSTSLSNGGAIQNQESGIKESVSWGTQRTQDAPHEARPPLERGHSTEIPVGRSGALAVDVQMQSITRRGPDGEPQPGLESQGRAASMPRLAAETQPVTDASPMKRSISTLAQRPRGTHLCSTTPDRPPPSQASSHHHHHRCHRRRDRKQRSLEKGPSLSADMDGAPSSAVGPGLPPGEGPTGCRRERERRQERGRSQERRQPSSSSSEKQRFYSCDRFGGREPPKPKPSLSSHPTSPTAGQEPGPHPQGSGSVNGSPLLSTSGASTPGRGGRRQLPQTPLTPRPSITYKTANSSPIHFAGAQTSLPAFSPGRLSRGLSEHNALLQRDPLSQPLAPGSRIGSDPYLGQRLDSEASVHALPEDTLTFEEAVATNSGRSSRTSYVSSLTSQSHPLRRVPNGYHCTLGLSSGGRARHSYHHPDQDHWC
N-type calcium channel (α1B (Cav2.2), β3 and α2δ subunits), sequence (P54284 whole entry partner): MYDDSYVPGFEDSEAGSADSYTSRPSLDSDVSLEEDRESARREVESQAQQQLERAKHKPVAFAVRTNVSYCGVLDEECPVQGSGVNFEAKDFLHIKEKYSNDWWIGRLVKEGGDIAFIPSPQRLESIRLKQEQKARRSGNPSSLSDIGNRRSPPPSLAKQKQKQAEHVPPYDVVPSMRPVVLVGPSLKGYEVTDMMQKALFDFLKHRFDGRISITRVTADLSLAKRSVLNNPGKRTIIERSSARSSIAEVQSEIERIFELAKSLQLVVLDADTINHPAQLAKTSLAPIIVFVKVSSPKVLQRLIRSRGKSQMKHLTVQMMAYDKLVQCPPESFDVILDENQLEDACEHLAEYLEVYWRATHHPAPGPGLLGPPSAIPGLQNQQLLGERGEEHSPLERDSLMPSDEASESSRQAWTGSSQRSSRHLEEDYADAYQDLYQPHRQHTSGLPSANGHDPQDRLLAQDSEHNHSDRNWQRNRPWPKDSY
N-type calcium channel (α1B (Cav2.2), β3 and α2δ subunits), sequence (P54289 25-946 partner limits assumed): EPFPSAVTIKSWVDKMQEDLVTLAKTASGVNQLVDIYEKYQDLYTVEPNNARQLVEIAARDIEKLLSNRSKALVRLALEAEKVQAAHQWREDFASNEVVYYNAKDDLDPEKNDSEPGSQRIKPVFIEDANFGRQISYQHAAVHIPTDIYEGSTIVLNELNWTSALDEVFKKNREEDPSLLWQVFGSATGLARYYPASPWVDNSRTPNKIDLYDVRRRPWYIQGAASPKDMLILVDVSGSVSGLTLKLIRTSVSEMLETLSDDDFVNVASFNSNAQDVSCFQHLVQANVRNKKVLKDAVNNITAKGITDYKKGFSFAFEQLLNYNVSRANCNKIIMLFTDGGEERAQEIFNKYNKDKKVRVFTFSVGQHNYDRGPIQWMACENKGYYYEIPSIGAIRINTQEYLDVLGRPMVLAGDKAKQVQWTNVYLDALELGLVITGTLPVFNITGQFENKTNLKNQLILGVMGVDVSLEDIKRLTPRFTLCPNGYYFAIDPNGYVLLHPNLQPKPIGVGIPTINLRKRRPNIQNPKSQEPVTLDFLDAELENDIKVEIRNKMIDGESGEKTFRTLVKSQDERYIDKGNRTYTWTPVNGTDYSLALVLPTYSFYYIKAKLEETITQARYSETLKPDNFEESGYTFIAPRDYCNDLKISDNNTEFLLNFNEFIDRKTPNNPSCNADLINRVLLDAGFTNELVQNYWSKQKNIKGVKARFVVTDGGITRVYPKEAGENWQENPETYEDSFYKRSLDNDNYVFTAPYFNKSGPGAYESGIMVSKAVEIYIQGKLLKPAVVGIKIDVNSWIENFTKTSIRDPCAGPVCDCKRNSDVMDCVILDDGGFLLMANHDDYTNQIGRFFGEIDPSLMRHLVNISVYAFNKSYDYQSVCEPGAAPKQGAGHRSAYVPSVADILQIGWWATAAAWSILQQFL
N-type calcium channel (α1B (Cav2.2), β3 and α2δ subunits), sequence (P54289 947-1103 partner limits assumed): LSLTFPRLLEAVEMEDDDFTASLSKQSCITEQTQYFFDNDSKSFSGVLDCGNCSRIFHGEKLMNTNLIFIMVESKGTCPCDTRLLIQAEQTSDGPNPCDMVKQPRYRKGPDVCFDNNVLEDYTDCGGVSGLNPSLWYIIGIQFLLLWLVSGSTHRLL
N-type calcium channel, sequence (Q00975 whole entry): as the sequence (Q00975 whole entry) above
N-type calcium channel, sequence (P54284 whole entry partner): as the sequence (P54284 whole entry partner) above
N-type calcium channel, sequence (P54289 25-946 partner limits assumed): as the sequence (P54289 25-946 partner limits assumed) above
N-type calcium channel, sequence (P54289 947-1103 partner limits assumed): as the sequence (P54289 947-1103 partner limits assumed) above

SMILES | IC50 [2] [nM] | inhibition at 0.33 µM [2] [%] | further results
COc1ccccc1-n1nc2c(c1-c1ccc(Cl)cc1)CC(CCOC(=O)N1CCOCC1)C2 (stereo not drawn) [Compound 2, 2-[3-(4-chlorophenyl)-2-(2-methoxyphenyl)-2,4,5,6-tetrahydrocyclopenta[c]pyrazol-5-yl]ethyl morpholine-4-carboxylate] | 33 |  | inhibition at 0.25 µM [1, 3]: 58%; inhibition at 1 µM [1, 3]: 69%; inhibition at 5 µM [1, 3]: 97%; inhibition at 0.25 µM [1, 4]: 54%; inhibition at 1 µM [1, 4]: 76%; inhibition at 5 µM [1, 4]: 90%
COc1ccccc1-n1nc2c(c1-c1ccc(Cl)cc1)CC(CCOC(=O)N(C)C)C2 (stereo not drawn) [Compound 3, 2-[3-(4-chlorophenyl)-2-(2-methoxyphenyl)-2,4,5,6-tetrahydrocyclopenta[c]pyrazol-5-yl]ethyl dimethylcarbamate] | 26 |  | inhibition at 0.25 µM [1, 3]: 57%; inhibition at 1 µM [1, 3]: 76%; inhibition at 5 µM [1, 3]: 88%; inhibition at 0.25 µM [1, 4]: 35%; inhibition at 1 µM [1, 4]: 69%; inhibition at 5 µM [1, 4]: 93%
CCOC(=O)C1Cc2nn(-c3ccccc3OC)c(-c3ccc(Cl)cc3)c2C1 (stereo not drawn) [Compound 5, ethyl 3-(4-chlorophenyl)-2-(2-methoxyphenyl)-2,4,5,6-tetrahydrocyclopenta[c]pyrazole-5-carboxylate] | 43 |  | inhibition at 5 µM [1, 3]: 85%; inhibition at 5 µM [1, 4]: 82%
COc1ccccc1-n1nc2c(c1-c1ccc(Cl)cc1)CC(CNS(C)(=O)=O)C2 (stereo not drawn) [Compound 8, N-{[3-(4-chlorophenyl)-2-(2-methoxyphenyl)-2,4,5,6-tetrahydrocyclopenta[c]pyrazol-5-yl]methyl}methanesulfonamide] | 55 | 96 | inhibition at 0.25 µM [1, 3]: -12%; inhibition at 1 µM [1, 3]: 57%; inhibition at 0.25 µM [1, 4]: -9%; inhibition at 1 µM [1, 4]: 62%
COc1ccccc1-n1nc2c(c1-c1ccc(Cl)cc1)CC(CCNS(C)(=O)=O)C2 (stereo not drawn) [Compound 11, N-{2-[3-(4-chlorophenyl)-2-(2-methoxyphenyl)-2,4,5,6-tetrahydrocyclopenta[c]pyrazol-5-yl]ethyl}methanesulfonamide] | 73 | 99 | inhibition at 1 µM [1, 3]: 28%; inhibition at 1 µM [1, 4]: 29%
COc1ccccc1-n1nc2c(c1-c1ccc(Cl)cc1)CC(CCNC(C)=O)C2 (stereo not drawn) [Compound 12, N-{2-[3-(4-chlorophenyl)-2-(2-methoxyphenyl)-2,4,5,6-tetrahydrocyclopenta[c]pyrazol-5-yl]ethyl}acetamide] | 70 |  | inhibition at 1 µM [1, 3]: 26%; inhibition at 1 µM [1, 4]: 15%
COc1ccccc1-n1nc2c(c1-c1ccc(Cl)s1)CC1(C2)OC(C)(C)C(C)(C)O1 [Compound 121, 3-(5-chlorothiophen-2-yl)-2-(2-methoxyphenyl)-4′,4′,5′,5′-tetramethyl-2,6-dihydro-4H-spiro[cyclopenta[c]pyrazole-5,2′-[1,3]dioxolane]] | 30 | 86 | 
COc1ccccc1-n1nc2c(c1-c1ccc(Cl)cc1)CC(N1CCCC1)C2 (stereo not drawn) [Compound 122, 3-(4-chlorophenyl)-2-(2-methoxyphenyl)-5-pyrrolidin-1-yl-2,4,5,6-tetrahydrocyclopenta[c]pyrazole] |  | 33 | 
COC(=O)c1cn([C@@H]2Cc3nn(-c4ccccc4OC)c(-c4ccc(C#N)cc4)c3C2)nn1 [Compound 125, methyl 1-[(5S)-3-(4-cyanophenyl)-2-(2-methoxyphenyl)-2,4,5,6-tetrahydrocyclopenta[c]pyrazol-5-yl]-1H-1,2,3-triazole-4-carboxylate] | 81 | 70 | 
COc1ccccc1-n1nc2c(c1-c1ccc(C#N)cc1)C[C@H](n1cc(C(C)(C)O)nn1)C2 [Compound 126, 4-[(5S)-5-[4-(1-hydroxy-1-methylethyl)-1H-1,2,3-triazol-1-yl]-2-(2-methoxyphenyl)-2,4,5,6-tetrahydrocyclopenta[c]pyrazol-3-yl]benzonitrile] |  | 33 | 
COc1ccccc1-n1nc2c(c1-c1ccc(C#N)cc1)C[C@H](n1cc(COC(C)=O)nn1)C2 [Compound 128, {1-[(5S)-3-(4-cyanophenyl)-2-(2-methoxyphenyl)-2,4,5,6-tetrahydrocyclopenta[c]pyrazol-5-yl]-1H-1,2,3-triazol-4-yl}methyl acetate] | 170 | 59 | 
COCc1cn([C@@H]2Cc3nn(-c4ccccc4OC)c(-c4ccc(C#N)cc4)c3C2)nn1 [Compound 129, 4-[(5S)-5-[4-(methoxymethyl)-1H-1,2,3-triazol-1-yl]-2-(2-methoxyphenyl)-2,4,5,6-tetrahydrocyclopenta[c]pyrazol-3-yl]benzonitrile] |  | 47 | 
COc1ccccc1-n1nc2c(c1-c1ccc(C#N)cc1)C[C@H](n1cnc(C)c1C)C2 [Compound 131, 4-[(5S)-5-(4,5-dimethyl-1H-imidazol-1-yl)-2-(2-methoxyphenyl)-2,4,5,6-tetrahydrocyclopenta[c]pyrazol-3-yl]benzonitrile] | 105 | 67 | 
COc1ccccc1-n1nc2c(c1-c1ccc(C#N)cc1)C[C@H](n1c(C)nc(C)c1C)C2 [Compound 132, 4-[(5S)-2-(2-methoxyphenyl)-5-(2,4,5-trimethyl-1H-imidazol-1-yl)-2,4,5,6-tetrahydrocyclopenta[c]pyrazol-3-yl]benzonitrile] |  | 29 | 
CCc1nc(C)c(C)n1[C@@H]1Cc2nn(-c3ccccc3OC)c(-c3ccc(C#N)cc3)c2C1 [Compound 133, 4-[(5S)-5-(2-ethyl-4,5-dimethyl-1H-imidazol-1-yl)-2-(2-methoxyphenyl)-2,4,5,6-tetrahydrocyclopenta[c]pyrazol-3-yl]benzonitrile] |  | 35 | 
CCc1nccn1[C@@H]1Cc2nn(-c3ccccc3OC)c(-c3ccc(C#N)cc3)c2C1 [Compound 134, 4-[(5S)-5-(2-ethyl-1H-imidazol-1-yl)-2-(2-methoxyphenyl)-2,4,5,6-tetrahydrocyclopenta[c]pyrazol-3-yl]benzonitrile] | 200 | 50 | 
COc1ccccc1-n1nc2c(c1-c1ccc(C#N)cc1)C[C@H](n1ccnc1C)C2 [Compound 135, 4-[(5S)-2-(2-methoxyphenyl)-5-(2-methyl-1H-imidazol-1-yl)-2,4,5,6-tetrahydrocyclopenta[c]pyrazol-3-yl]benzonitrile] |  | 44 | 
CCc1nnn([C@@H]2Cc3nn(-c4ccccc4OC)c(-c4ccc(C#N)cc4)c3C2)c1CC [Compound 136, 4-[(5S)-5-(4,5-diethyl-1H-1,2,3-triazol-1-yl)-2-(2-methoxyphenyl)-2,4,5,6-tetrahydrocyclopenta[c]pyrazol-3-yl]benzonitrile] | 16 | 89 | 
CCc1nc(CC)n([C@@H]2Cc3nn(-c4ccccc4OC)c(-c4ccc(C#N)cc4)c3C2)c1CC [Compound 137, 4-[(5S)-2-(2-methoxyphenyl)-5-(2,4,5-triethyl-1H-imidazol-1-yl)-2,4,5,6-tetrahydrocyclopenta[c]pyrazol-3-yl]benzonitrile] |  | 49 | 
CCc1nc(C)n([C@@H]2Cc3nn(-c4ccccc4OC)c(-c4ccc(C#N)cc4)c3C2)c1CC [Compound 138, 4-[(5S)-5-(4,5-diethyl-2-methyl-1H-imidazol-1-yl)-2-(2-methoxyphenyl)-2,4,5,6-tetrahydrocyclopenta[c]pyrazol-3-yl]benzonitrile] | 320 | 63 | 
